{"source": "ChEMBL document CHEMBL4673253", "about": "“Discovery of EST73502, a Dual μ-Opioid Receptor Agonist and σ Receptor Antagonist Clinical Candidate for the Treatment of Pain” (J Med Chem, 2020)", "key": {"[1]": {"experiment": "Toxicity in CD1 mouse assessed as inhibition of intestinal transit by measuring percentage of distance traveled by charcoal meal at 40 mg/kg, po", "assay_type": "organism-based", "details": "in vivo"}, "[2]": {"experiment": "Toxicity in CD1 mouse PSNL model assessed as induction of opiate withdrawal by measuring expression of some behavioral signs measured immediately after naloxone injection at 1.25 mg/kg, ip BID for 11 days from day 13 to day 22 and measured on day 23", "assay_type": "organism-based", "details": "in vivo, 264 h, time 11 day"}, "[3]": {"experiment": "Toxicity in CD1 mouse PSNL model assessed as induction of opiate withdrawal by measuring expression of some behavioral signs measured immediately after naloxone injection at 5 mg/kg, ip BID for 11 days from day 13 to day 22 and measured on day 23", "assay_type": "organism-based", "details": "in vivo, 264 h, time 11 day"}, "[4]": {"system": "Mus musculus", "experiment": "Antinociceptive activity in CD1 mouse PSNL model assessed as reduction in mechanical allodynia by measuring decrease in the pressure required to elicit withdrawal of the ipsilateral paw after von Frey filament stimulation at 5 mg/kg, ip BID for 11 days from day 13 to day 22", "assay_type": "functional", "details": "264 h, time 11 day"}, "[5]": {"system": "Mus musculus", "experiment": "Antinociceptive activity in CD1 mouse at 10 to 40 mg/kg, po co-treated with 64 mg/kg, sc sigma1R agonist PRE-084 by paw pressure test", "assay_type": "functional", "details": "dose 10-40 mg/kg"}, "[6]": {"system": "Mus musculus", "experiment": "Antinociceptive activity in orally dosed CD1 mouse assessed as by paw pressure test", "assay_type": "functional", "details": "CD1, po"}, "[7]": {"experiment": "Thermodynamic solubility of compound at pH 2", "assay_type": "physicochemical", "details": "buffer, read-out: Therm_solubility"}, "[8]": {"system": "HepG2", "experiment": "Toxicity in human HepG2 cells assessed as reduction in cell viability up to 100 uM by neutral red uptake assay", "assay_type": "cell-based"}, "[9]": {"system": "HepG2", "experiment": "Toxicity in human HepG2 cells assessed as reduction in cell viability up to 100 uM by MTT assay", "assay_type": "cell-based"}, "[10]": {"experiment": "Intrinsic clearance in human liver microsomes", "assay_type": "ADME, Microsome", "details": "read-out: CLH"}, "[11]": {"target": "CYP3A4 (Homo sapiens, UniProt P08684)", "sequence (P08684 whole entry)": "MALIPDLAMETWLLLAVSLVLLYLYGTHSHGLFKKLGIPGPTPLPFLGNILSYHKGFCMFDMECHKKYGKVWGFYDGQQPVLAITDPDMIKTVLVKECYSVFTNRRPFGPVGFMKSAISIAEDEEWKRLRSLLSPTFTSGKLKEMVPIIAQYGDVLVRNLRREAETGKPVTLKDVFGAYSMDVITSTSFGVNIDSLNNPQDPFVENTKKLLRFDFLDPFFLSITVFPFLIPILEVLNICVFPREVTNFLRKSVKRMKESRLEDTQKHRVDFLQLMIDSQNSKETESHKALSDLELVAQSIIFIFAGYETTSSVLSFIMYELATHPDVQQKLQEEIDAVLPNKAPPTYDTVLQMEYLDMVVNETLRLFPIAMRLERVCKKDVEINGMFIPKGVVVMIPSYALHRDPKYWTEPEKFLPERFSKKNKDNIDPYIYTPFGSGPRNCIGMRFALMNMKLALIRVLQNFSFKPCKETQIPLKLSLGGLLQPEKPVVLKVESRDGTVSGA", "experiment": "Inhibition of human CYP3A4 at 1 uM relative to control", "assay_type": "ADME"}, "[12]": {"target": "CYP2D6 (Homo sapiens, UniProt P10635)", "sequence (P10635 whole entry)": "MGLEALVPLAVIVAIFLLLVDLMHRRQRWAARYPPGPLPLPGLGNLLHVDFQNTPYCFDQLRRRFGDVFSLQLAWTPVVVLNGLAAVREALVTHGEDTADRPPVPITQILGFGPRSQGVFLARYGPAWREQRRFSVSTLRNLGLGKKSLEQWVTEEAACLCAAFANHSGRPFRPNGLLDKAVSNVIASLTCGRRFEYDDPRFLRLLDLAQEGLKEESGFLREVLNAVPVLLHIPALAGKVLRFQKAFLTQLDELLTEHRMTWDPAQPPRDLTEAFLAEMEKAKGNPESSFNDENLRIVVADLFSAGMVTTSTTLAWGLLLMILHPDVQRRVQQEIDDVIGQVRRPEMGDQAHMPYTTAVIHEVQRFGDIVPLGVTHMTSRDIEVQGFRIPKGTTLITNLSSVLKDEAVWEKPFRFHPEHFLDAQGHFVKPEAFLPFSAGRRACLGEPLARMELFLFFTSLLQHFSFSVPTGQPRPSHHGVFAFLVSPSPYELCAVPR", "experiment": "Inhibition of human CYP2D6 at 1 uM relative to control", "assay_type": "ADME"}, "[13]": {"target": "CYP2C19 (Homo sapiens, UniProt P33261)", "sequence (P33261 whole entry)": "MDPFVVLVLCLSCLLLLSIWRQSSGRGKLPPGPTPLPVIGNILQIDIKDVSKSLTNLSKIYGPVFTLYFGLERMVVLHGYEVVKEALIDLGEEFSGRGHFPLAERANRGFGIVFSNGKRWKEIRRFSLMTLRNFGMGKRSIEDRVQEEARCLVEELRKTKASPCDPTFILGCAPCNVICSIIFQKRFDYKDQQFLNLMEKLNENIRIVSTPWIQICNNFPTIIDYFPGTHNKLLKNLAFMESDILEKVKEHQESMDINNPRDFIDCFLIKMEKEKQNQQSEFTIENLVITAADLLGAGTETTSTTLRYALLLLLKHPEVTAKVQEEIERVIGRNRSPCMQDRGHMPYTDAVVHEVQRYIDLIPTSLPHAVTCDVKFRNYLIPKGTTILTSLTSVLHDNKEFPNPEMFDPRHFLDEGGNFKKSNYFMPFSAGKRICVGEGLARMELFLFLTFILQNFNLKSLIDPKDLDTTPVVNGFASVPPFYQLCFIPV", "experiment": "Inhibition of human CYP2C19 at 1 uM relative to control", "assay_type": "ADME"}, "[14]": {"target": "CYP2C9 (Homo sapiens, UniProt P11712)", "sequence (P11712 whole entry)": "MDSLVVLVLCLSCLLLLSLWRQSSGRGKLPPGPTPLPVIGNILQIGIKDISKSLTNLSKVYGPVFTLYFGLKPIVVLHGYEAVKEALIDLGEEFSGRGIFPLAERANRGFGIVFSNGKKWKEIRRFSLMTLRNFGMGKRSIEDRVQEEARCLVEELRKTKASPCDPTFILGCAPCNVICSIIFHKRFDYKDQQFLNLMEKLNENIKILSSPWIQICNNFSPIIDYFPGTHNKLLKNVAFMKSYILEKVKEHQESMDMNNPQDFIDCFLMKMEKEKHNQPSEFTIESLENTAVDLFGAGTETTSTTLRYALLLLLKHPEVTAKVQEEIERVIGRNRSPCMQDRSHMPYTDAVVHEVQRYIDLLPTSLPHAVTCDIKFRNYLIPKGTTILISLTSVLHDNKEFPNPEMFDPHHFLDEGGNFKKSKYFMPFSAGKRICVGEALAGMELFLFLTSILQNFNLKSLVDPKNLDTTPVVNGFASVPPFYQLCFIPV", "experiment": "Inhibition of human CYP2C9 at 1 uM relative to control", "assay_type": "ADME"}, "[15]": {"target": "T1, CYP1A2 (Homo sapiens, UniProt P05177)", "T1 sequence (P05177 whole entry)": "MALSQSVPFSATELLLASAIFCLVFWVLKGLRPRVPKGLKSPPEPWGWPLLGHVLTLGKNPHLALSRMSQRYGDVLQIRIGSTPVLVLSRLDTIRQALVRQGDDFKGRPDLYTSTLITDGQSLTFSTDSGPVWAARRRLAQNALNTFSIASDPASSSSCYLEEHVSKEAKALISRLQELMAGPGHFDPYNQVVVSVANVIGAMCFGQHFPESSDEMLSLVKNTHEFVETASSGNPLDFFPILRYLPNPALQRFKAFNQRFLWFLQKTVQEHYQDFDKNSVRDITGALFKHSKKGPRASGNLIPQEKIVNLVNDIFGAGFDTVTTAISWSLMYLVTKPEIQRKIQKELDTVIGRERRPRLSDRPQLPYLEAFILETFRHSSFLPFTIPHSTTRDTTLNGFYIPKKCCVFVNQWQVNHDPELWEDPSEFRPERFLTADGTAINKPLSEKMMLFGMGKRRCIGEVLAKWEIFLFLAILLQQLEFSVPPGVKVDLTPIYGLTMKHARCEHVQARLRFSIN", "experiment": "Inhibition of human CYP1A2 at 1 uM relative to control", "assay_type": "ADME"}, "[16]": {"experiment": "Mutagenicity in Salmonella typhimurium by Ames test", "assay_type": "toxicity", "details": "salmonella enterica subsp. enterica serovar typhimurium"}, "[17]": {"experiment": "Permeability in human Caco-2 cells", "assay_type": "ADME, cell-based"}, "[18]": {"experiment": "Thermodynamic solubility of compound at pH 7.4", "assay_type": "physicochemical", "details": "buffer, read-out: Therm_solubility"}, "[19]": {"experiment": "Distribution coefficient, logD of compound at pH 7.4", "assay_type": "physicochemical", "details": "octanol/water"}, "[20]": {"experiment": "Lipophilicity, logD of compound", "assay_type": "physicochemical", "details": "octanol/water"}, "[21]": {"target": "hERG (KCNH2) (Homo sapiens, UniProt Q12809)", "sequence (Q12809 whole entry)": "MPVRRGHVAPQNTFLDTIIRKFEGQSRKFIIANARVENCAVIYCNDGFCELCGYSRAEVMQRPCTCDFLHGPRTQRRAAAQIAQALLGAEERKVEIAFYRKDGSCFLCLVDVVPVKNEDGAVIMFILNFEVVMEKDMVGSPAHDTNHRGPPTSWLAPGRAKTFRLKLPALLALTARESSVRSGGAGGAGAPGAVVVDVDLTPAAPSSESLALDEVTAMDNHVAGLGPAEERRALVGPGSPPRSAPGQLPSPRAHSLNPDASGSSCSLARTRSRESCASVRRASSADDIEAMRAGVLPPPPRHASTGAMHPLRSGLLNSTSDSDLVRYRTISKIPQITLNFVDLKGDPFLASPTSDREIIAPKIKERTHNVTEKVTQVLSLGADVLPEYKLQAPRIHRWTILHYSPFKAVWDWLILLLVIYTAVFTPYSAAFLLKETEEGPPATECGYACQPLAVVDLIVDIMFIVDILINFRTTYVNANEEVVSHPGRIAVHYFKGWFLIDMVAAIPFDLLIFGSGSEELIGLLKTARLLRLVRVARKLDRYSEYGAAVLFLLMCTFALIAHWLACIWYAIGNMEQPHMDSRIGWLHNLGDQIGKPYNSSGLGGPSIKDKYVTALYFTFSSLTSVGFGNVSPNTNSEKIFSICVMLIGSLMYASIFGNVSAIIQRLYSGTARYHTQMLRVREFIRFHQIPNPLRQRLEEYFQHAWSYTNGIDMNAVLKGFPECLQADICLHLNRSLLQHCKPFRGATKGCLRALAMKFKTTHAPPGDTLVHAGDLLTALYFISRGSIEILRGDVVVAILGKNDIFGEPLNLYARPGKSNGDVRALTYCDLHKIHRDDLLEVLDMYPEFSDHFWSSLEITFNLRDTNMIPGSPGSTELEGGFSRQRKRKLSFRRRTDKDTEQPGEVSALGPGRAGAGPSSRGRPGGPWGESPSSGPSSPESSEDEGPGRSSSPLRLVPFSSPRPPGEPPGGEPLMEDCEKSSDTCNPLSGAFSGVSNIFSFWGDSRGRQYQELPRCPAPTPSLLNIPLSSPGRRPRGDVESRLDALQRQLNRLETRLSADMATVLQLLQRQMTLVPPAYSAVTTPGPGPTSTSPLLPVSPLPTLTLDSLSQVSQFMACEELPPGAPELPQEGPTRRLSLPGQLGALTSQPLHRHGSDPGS", "experiment": "Inhibition of human ERG expressed in CHO cells at 10 uM at -80 mV holding potential by whole cell patch clamp assay", "assay_type": "cell-based", "details": "CHO cells expressing human ERG"}, "[22]": {"target": "T2, Alpha-1A adrenergic receptor (Homo sapiens) (UniProt P35348)", "T2 sequence (whole entry)": "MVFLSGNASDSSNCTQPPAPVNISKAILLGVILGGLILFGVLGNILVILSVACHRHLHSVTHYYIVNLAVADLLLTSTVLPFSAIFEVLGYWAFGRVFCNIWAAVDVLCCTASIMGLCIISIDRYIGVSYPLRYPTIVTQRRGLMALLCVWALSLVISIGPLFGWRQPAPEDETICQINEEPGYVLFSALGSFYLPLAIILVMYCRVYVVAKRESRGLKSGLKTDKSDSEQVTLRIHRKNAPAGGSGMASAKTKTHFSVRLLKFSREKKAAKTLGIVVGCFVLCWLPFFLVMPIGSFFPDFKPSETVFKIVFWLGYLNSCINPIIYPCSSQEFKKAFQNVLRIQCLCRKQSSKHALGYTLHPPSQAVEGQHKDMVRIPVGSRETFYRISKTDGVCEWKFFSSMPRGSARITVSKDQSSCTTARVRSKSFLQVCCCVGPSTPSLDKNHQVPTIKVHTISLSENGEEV", "experiment": "Binding affinity to human alpha1A adrenoreceptor expressed in membranes assessed as inhibition of [3H]-prazosin binding incubated for 90 mins by scintillation counting method", "set-up": "concentration or dose not given beside the values", "details": "Cell membrane"}, "[23]": {"target": "Voltage-gated inwardly rectifying potassium channel KCNH2 (Homo sapiens, UniProt Q12809)", "sequence (Q12809 whole entry)": "as the sequence (Q12809 whole entry) above", "description": "Inhibition of human ERG expressed in CHO cells at -80 mV holding potential by whole cell patch clamp assay"}}}
{"smiles": "CCN1CC2(CCN(CCc3cc(F)ccc3F)CC2)O[C@H](C)C1=O", "values": [{"measurement": "Activity", "setting": "[1]", "value": "Non-Toxic"}, {"measurement": "Activity", "setting": "[2]", "value": "Non-Toxic"}, {"measurement": "Activity", "setting": "[3]", "value": "Non-Toxic"}, {"measurement": "inhibition in vivo at 5 mg/kg", "setting": "[4]", "value": 56, "unit": "%"}, {"measurement": "Emax", "setting": "[5]", "value": 40, "unit": "%"}, {"measurement": "Emax", "setting": "[6]", "value": 64, "unit": "%"}, {"measurement": "solubility thermodynamic", "setting": "[7]", "value": 45.1, "unit": "mg/mL"}, {"measurement": "Activity", "setting": "[8]", "value": "Non-Toxic"}, {"measurement": "Activity", "setting": "[9]", "value": "Non-Toxic"}, {"measurement": "microsomal CLint", "setting": "[10]", "value": 2.4, "unit": "µL/min/mg"}, {"measurement": "inhibition at 1 µM", "setting": "[11]", "value": "< 50", "unit": "%"}, {"measurement": "inhibition at 1 µM", "setting": "[12]", "value": "< 50", "unit": "%"}, {"measurement": "inhibition at 1 µM", "setting": "[13]", "value": "< 50", "unit": "%"}, {"measurement": "inhibition at 1 µM", "setting": "[14]", "value": "< 50", "unit": "%"}, {"measurement": "inhibition at 1 µM", "setting": "[15]", "value": "< 50", "unit": "%"}, {"measurement": "Activity", "setting": "[16]", "value": "Non-Toxic"}, {"measurement": "Papp", "setting": "[17]", "value": 34.9, "unit": "×10⁻⁶ cm/s"}, {"measurement": "solubility thermodynamic", "setting": "[18]", "value": 17.7, "unit": "mg/mL"}, {"measurement": "logD", "setting": "[19]", "value": 2}, {"measurement": "logD", "setting": "[20]", "value": 2.7}, {"measurement": "inhibition at 10 µM", "setting": "[21]", "value": "< 50", "unit": "%"}, {"measurement": "inhibition", "setting": "[22]", "value": 21, "unit": "%"}, {"measurement": "IC50", "setting": "[23]", "value": "> 10", "unit": "µM"}]}
